According to patent US4691024A, “New mitomycin derivatives, preparation thereof and pharmaceutical compositions containing them” (priority 1984, dated 1987):
≈ marks a conversion by molar mass, not a printed value.

Tests used:
[1] = tested on: Streptococcus faecalis ATCC 10541; assay: Antibacterial activity, minimum growth inhibitory concentration by agar dilution method (SF); format: cell-based; details: Enterococcus faecalis, ATCC10541, pH 7, read-out: MIC, Streptococcus faecalis (SF)
Protocol: (§1) The various compounds of formula (I) of Examples 1-26 were tested for antibacterial activity against 6 microorganisms. […]. In this table, the following symbols are used:
SF: Streptococcus faecalis ATCC 10541

[2] = tested on: Staphylococcus aureus ATCC 6538P; assay: Antibacterial activity, minimum growth inhibitory concentration by agar dilution method (SA); format: cell-based; details: ATCC6538P, pH 7, read-out: MIC, Staphylococcus aureus (SA)
Protocol: as §1
SA: Staphylococcus aureus ATCC 6538P

Bacillus subtilis 10707 = assay: Antibacterial activity, minimum growth inhibitory concentration by agar dilution method (BS); format: cell-based; details: Bacillus subtilis, 10707, pH 7, read-out: MIC, Bacillus subtilis (BS)
Protocol: as §1
BS: Bacillus subtilis 10707

[3] = tested on: Proteus vulgaris ATCC 6897; assay: Antibacterial activity, minimum growth inhibitory concentration by agar dilution method (PV); format: cell-based; details: ATCC6897, pH 7, read-out: MIC, Proteus vulgaris (PV)
Protocol: as §1
PV: Proteus vulgaris ATCC 6897

[4] = tested on: Shigella sonnei ATCC 9290; assay: Antibacterial activity, minimum growth inhibitory concentration by agar dilution method (SS); format: cell-based; details: ATCC9290, pH 7, read-out: MIC, Shigella sonnei (SS)
Protocol: as §1
SS: Shigella sonnei ATCC 9290

[5] = tested on: Klebsiella pneumoniae ATCC 10031; assay: microbe, parasite or virus in culture; format: cell-based; details: ATCC10031, pH 7, read-out: MIC, Klebsiella pneumoniae (KP)
Text: In this table, the following symbols are used:
KP: Klebsiella pneumoniae ATCC 10031

[6] = Stability of the product as observed on isolation; format: physicochemical; details: in words; yield not constant
Protocol: To this solution is added dropwise 1 ml of methanol containing 23 mg of L-cysteine methyl ester hydrochloride and 50 μl of triethylamine. About 2 minutes later, the solvent is removed from the mixture by distillation under reduced pressure. Then, a similar treatment to that described in Example 1 is effected to obtain a small amount of Compound 16 as a grayish green powder. The yield of the resultant compound is not constant because of its unstability.
The yield is not constant because of unstability of the product.

SMILES | MIC [1] | MIC [2] | MIC (Bacillus subtilis 10707) | MIC [3] | MIC [4] | MIC [5] | stability of the resultant compound [6]
CCOC(=O)[C@@H](N)CSSCCNC1=C(C)C(=O)C2=C(C1=O)[C@@H](COC(N)=O)[C@@]1(OC)[C@H]3N[C@H]3CN21 [Compound 17] | 0.2 µg/mL (≈ 0.369 µM) | 0.2 µg/mL (≈ 0.369 µM) | < 0.02 µg/mL | 1.6 µg/mL (≈ 2.95 µM) | 25 µg/mL (≈ 46.2 µM) | 0.2 µg/mL (≈ 0.369 µM) | unstability
COC(=O)[C@@H](N)CSSCCNC1=C(C)C(=O)C2=C(C1=O)[C@@H](COC(N)=O)[C@@]1(OC)[C@H]3N[C@H]3CN21 [Compound 16, 7-N-[2-[(L-1-Methoxycarbonylcysteamin-S-yl)thio]ethyl]mitomycin C] | 0.39 µg/mL (≈ 0.739 µM) | 0.2 µg/mL (≈ 0.379 µM) | < 0.02 µg/mL | 1.6 µg/mL (≈ 3.03 µM) | 50 µg/mL (≈ 94.8 µM) | 0.2 µg/mL (≈ 0.379 µM) | unstability
